Assay results as given in patent US20230356105A1, “TETRAAZADODECANE BASED CHELATING AGENTS FOR SEPARATION OF RARE EARTH ELEMENTS AND METHOD THEREFOR” (Ustav Organicke Chemie a Biochemie AV CR V.V.I., priority 2020, published 2023).

Assay: Ultrafiltration to remove benzoic acid and effect precipitation of L5 complexes (Example 26)
Assay type: physicochemical
Protocol: Stock solutions were pipetted into a 20 mL glass vial to prepare the reaction mixture: • 1. 938 μL 196 mM aqueous chelator L5 (pH=4) • 2. 836 μL 1000 mM aqueous benzoic acid (stock solution containing 1 equivalent NaOH) • 3. 8000 μL H2O • 4. 952 μL 175.5 mM aqueous LnCl3 solution (from a stock solution containing a mixture of Ln=Nd, Pr, Tb, and Dy, in a ratio of 3.3:1:1:1, Nd:Pr:Tb:Dy)
The reaction solution was then titrated to pH 6.5 by addition of aqueous 2 M NaOH. The solution was stirred on a magnetic stir-plate at room temperature for 1 hour, and the precipitate was removed from the solution by filtration through a 0.45 μtm regenerated cellulose syringe filter. From this filtered solution, 1 mL was set aside for elemental analysis as the “initial” solution, 1 mL was set aside as a “control” solution in a clean 4 mL glass vial with a PTFE-coated stir bar to be stirred at 600 rpm at room temperature on a magnetic stirrer, and the remaining 9 mL were diluted slightly by addition of 2 mL H2O, then filtered on an ultrafiltration system with a nanofiltration membrane with molecular weight cut-off of 100-250 Da (NFS membrane, Synder Filtration, CA, USA), 4 bar N2 to pressurize the system, magnetic stiffing at 250 rpm, and continual addition of water to replace the filtered volume. The filtrate was collected in an Erlenmeyer flask, and a total volume of 50 mL was filtered over 11 hours. After this time, the “retained” reaction mixture, now having a volume of 10.5 mL and with some precipitate present, was transferred to a clean 20 mL glass vial and stirred by PTFE-coated stir bar on a magnetic stirrer at 600 rpm for an additional 10 hours, as was the control solution. After this additional time, samples of both the control solution and the retained solution from the ultrafiltration were prepared for elemental analysis by filtration through 0.45 μm nylon syringe filters. The initial, control, and retained solutions were then analysed by ICP-OES for determination of absolute Nd, Pr, Dy, and Tb content.

[1] = control solution, stirred without ultrafiltration
[2] = initial solution (L5 + benzoic acid, pH 6.5, filtered)
[3] = retained solution after ultrafiltration (100-250 Da membrane)
[4] = retained*, recalculated from end volume 10.5 to original 9.0 mL

O=C(O)CN1CCN(CC(=O)O)CCN(Cc2cccc3ccccc23)CCN(CC(=O)O)CC1 [L5, 2,2′,2″-(10-(naphthalene-1-ylmethyl)-1,4,7,10-tetraazacyklododekane-1,4,7-triyl)triacetic acid]
concentration Dy [1]: 760 µM
concentration Nd [1]: 1800 µM
concentration Pr [1]: 400 µM
concentration Tb [1]: 750 µM
concentration sum of M [1]: 3710 µM
concentration Dy [2]: 770 µM
concentration Nd [2]: 1800 µM
concentration Pr [2]: 400 µM
concentration Tb [2]: 760 µM
concentration sum of M [2]: 3730 µM
concentration Dy [3]: 440 µM
concentration Nd [3]: 1030 µM
concentration Pr [3]: 230 µM
concentration Tb [3]: 420 µM
concentration sum of M [3]: 2120 µM
concentration Dy [4]: 510 µM
concentration Nd [4]: 1200 µM
concentration Pr [4]: 270 µM
concentration Tb [4]: 490 µM
concentration sum of M [4]: 2470 µM
